Like-named read-outs stand apart in the source and are kept apart here.
How the values were obtained:
[1] = target: purified recombinant human AMPK (α1β1γ1) (Homo sapiens, UniProt P54619+Q13131+Q9Y478); assay: radiometric [33P]-ATP kinase activity assay, AMPK; assay type: biochemical; conditions: for IC50: 10 μM [33P]-ATP; for EC50: concentration axis Log(M)
[2] = target: purified recombinant human AMPK (α1β1γ1) (Homo sapiens, UniProt Q13131); assay: radiometric [33P]-ATP kinase activity assay, AMPK; assay type: biochemical; conditions: for inhibition of AMPK activity (in words): up to 10 μM; for Hill Slope: AMPK curve fit, kinase profiling report; for HillSlope (GraphPad Prism best-fit, AMPK) / LogEC50 (GraphPad Prism best-fit, AMPK): sigmoidal dose-response variable slope; for LogEC50 (GraphPad Prism best-fit, AMPK): concentration axis Log(M); for % Activity (enzyme activity relative to DMSO controls): AMPK
[3] = target: purified recombinant human GSK3β (Homo sapiens, UniProt P49841); assay: radiometric [33P]-ATP kinase activity assay, GSK3β; conditions: for Hill Slope: GSK3β curve fit, kinase profiling report; for HillSlope (GraphPad Prism best-fit, GSK3β) / LogEC50 (GraphPad Prism best-fit, GSK3β): sigmoidal dose-response variable slope
AMPK = system: AMPK; design: method as in PMID 23410232; conditions: at 10 μM; cited from earlier work
GSK3β = system: GSK3β; design: method as in PMID 23410232; conditions: at 10 μM; cited from earlier work
cellular AMPK activity = conditions: cited from earlier work
[4] = 10-dose singlet, 3-fold dilutions from 10 μM, read-out: AMPK IC50

Chain of purified recombinant human AMPK (α1β1γ1) (Homo sapiens, UniProt P54619+Q13131+Q9Y478) (Q13131 whole entry): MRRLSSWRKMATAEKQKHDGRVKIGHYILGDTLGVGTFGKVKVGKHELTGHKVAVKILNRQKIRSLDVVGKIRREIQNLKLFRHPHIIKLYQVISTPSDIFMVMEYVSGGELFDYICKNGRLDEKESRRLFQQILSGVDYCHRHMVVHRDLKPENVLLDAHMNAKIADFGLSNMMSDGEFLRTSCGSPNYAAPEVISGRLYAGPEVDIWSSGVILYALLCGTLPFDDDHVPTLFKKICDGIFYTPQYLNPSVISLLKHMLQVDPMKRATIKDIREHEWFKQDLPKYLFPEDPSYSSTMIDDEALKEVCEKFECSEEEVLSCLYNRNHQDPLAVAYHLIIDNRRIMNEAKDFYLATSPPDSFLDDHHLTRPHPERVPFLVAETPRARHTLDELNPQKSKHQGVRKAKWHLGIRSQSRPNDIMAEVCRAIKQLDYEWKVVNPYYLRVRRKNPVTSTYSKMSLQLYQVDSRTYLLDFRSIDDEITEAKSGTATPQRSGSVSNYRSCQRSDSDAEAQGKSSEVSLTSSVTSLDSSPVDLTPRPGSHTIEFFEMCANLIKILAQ
Chain of purified recombinant human AMPK (α1β1γ1) (Homo sapiens, UniProt P54619+Q13131+Q9Y478) (Q9Y478 whole entry partner): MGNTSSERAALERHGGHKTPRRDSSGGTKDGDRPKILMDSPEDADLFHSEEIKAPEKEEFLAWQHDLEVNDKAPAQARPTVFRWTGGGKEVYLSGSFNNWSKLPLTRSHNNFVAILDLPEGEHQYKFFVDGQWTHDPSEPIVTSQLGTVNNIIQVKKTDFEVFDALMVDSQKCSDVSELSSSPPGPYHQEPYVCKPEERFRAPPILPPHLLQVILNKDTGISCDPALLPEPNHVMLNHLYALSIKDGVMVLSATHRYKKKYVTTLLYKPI
Chain of purified recombinant human AMPK (α1β1γ1) (Homo sapiens, UniProt P54619+Q13131+Q9Y478) (P54619 whole entry partner): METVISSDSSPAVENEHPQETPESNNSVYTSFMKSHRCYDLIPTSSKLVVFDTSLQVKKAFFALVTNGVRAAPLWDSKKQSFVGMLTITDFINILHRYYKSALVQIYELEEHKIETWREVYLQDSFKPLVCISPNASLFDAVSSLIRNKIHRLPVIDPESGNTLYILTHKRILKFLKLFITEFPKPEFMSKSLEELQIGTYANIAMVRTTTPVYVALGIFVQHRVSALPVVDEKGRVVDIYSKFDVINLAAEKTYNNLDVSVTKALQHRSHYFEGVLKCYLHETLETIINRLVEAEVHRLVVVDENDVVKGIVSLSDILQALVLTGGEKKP
Chain of purified recombinant human AMPK (α1β1γ1) (Homo sapiens, UniProt Q13131) (Q13131 whole entry): as the sequence (Q13131 whole entry) above
Chain of purified recombinant human AMPK (α1β1γ1) (Homo sapiens, UniProt Q13131) (Q9Y478 whole entry partner): as the sequence (Q9Y478 whole entry partner) above
Chain of purified recombinant human AMPK (α1β1γ1) (Homo sapiens, UniProt Q13131) (P54619 whole entry partner): as the sequence (P54619 whole entry partner) above
Chain of purified recombinant human GSK3β (P49841 whole entry): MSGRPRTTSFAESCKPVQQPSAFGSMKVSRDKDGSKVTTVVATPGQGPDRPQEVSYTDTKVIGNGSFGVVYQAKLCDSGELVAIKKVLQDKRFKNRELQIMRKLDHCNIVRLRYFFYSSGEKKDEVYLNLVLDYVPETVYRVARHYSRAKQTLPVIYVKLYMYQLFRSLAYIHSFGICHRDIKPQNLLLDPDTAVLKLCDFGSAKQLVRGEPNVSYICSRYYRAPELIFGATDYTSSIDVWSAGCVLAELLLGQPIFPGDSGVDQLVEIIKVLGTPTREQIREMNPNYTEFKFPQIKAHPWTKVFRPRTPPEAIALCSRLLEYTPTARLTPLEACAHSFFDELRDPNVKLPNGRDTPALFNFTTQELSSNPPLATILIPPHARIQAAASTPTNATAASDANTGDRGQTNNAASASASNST

Row | Structure (SMILES) | IC50 [1, 4] [M] | inhibition of AMPK activity (in words) ([2]; 10 μM [33P]-ATP) | IC50 [3] [µM] | Hill Slope [3] | HillSlope (GraphPad Prism best-fit, GSK3β) [3] | Hill Slope [2] | other results
1 | CN1CCN(Cc2ccc(C=C3C(=O)Nc4ccc(CCC#N)cc43)cc2)CC1 (mixture of isomers) [Compound 8, (E/Z)-5-(2-Cyanoethyl)-3-(4-((4-methylpiperazin-1-yl)methyl)benzylidene)oxindole] | > 1e-05 | did not demonstrate AMPK inhibition | > 10 | – | – | – | –
2 | N#Cc1ccc2[nH]c(O)c(-c3ccc(CN4CCOCC4)cn3)c2c1 [AZD1080] | – | – | – | – | – | – | inhibition of AMPK kinase activity (AMPK): more than 50%; inhibition of GSK3β kinase activity (GSK3β): more than 50%
3 | CN1CCN(Cc2ccc(/C=C3\C(=O)Nc4ccc(CCN5CCCCC5)cc43)cc2)CC1 [Compound 10, (Z)-5-(2-(Piperidin-1-yl)ethyl)-3-(4-((4-methylpiperazin-1-yl)methyl)benzylidene)oxindole] | > 1e-05 | – | > 10 | – | – | – | –
4 | c1cc(-c2cnn3cc(-c4ccc(OCCN5CCCCC5)cc4)cnc23)ccn1 [Compound C, dorsomorphin] | – | – | – | – | – | – | concentration required to inhibit cellular AMPK activity (cellular AMPK activity): > 10 µM
5 | Cn1cc(C2=C(c3cn(CCCSC(=N)N)c4ccccc34)C(=O)NC2=O)c2ccccc21 [RO-31-8220, reference compound] | – | – | – | – | – | -0.77 | % Activity (enzyme activity relative to DMSO controls) ([2]; Ro-31-8220 Conc. 1.02E-09 M): 91.37%; % Activity (enzyme activity relative to DMSO controls) ([2]; Ro-31-8220 Conc. 2.00E-05 M): 5.65%; % Activity (enzyme activity relative to DMSO controls) ([2]; Ro-31-8220 Conc. 2.22E-06 M): 9.47%; % Activity (enzyme activity relative to DMSO controls) ([2]; Ro-31-8220 Conc. 2.47E-07 M): 25.85%; % Activity (enzyme activity relative to DMSO controls) ([2]; Ro-31-8220 Conc. 2.74E-08 M): 71.55%; % Activity (enzyme activity relative to DMSO controls) ([2]; Ro-31-8220 Conc. 3.05E-09 M): 90.55%; % Activity (enzyme activity relative to DMSO controls) ([2]; Ro-31-8220 Conc. 6.67E-06 M): 3.95%; % Activity (enzyme activity relative to DMSO controls) ([2]; Ro-31-8220 Conc. 7.41E-07 M): 12.59%; % Activity (enzyme activity relative to DMSO controls) ([2]; Ro-31-8220 Conc. 8.23E-08 M): 51.73%; % Activity (enzyme activity relative to DMSO controls) ([2]; Ro-31-8220 Conc. 9.14E-09 M): 78.23%; IC50 ([2]; supplement kinase profiling report, 10 μM [33P]-ATP, read-out: IC50 (M) AMPK(A1/B1/G1)): 8.36e-08 M
6 | CNC(=O)c1ccccc1Oc1nc(Nc2cc(OC)c(OC)c(OC)c2)ncc1Br [SBI-0206965] | – | – | – | – | – | – | concentration required to inhibit cellular AMPK activity (cellular AMPK activity): > 10 µM
7 | CCN(CC)CCNC(=O)c1c(C)[nH]c(/C=C2\C(=O)Nc3ccc(F)cc32)c1C [Sunitinib, sunitinib, reference compound] | – | – | – | -0.78 | -0.7769 | -0.78 | HillSlope (GraphPad Prism best-fit, AMPK) [2]: -0.7785; LogEC50 (GraphPad Prism best-fit, AMPK) [2]: -7.395; concentration required to inhibit cellular AMPK activity (cellular AMPK activity): < 5 µM

Further lines, with some results ahead:

Row | IC50 [1, 4] [M] | inhibition of AMPK activity (in words) ([2]; 10 μM [33P]-ATP) | IC50 [3] [µM] | Hill Slope [3] | HillSlope (GraphPad Prism best-fit, GSK3β) [3] | Hill Slope [2] | Structure (SMILES) | other results
8 | > 1e-05 | did not demonstrate AMPK inhibition | > 10 | – | – | – | N#CCCc1ccc2c(c1)C(=Cc1ccc(CN3CCOCC3)cc1)C(=O)N2 (mixture of isomers) [Compound 7, (E/Z)-5-(2-Cyanoethyl)-3-(4-(morpholinomethyl)benzylidene)oxindole] | –
9 | > 1e-05 | did not demonstrate AMPK inhibition | 3.37 | -0.95 | -0.9491 | – | N#Cc1ccc2c(c1)C(=Cc1ccc(CN3CCOCC3)cc1)C(=O)N2 (mixture of isomers) [Compound 11, (E/Z)-5-Cyano-3-(4-(morpholinomethyl)benzylidene)oxindole] | EC50 [3]: 3.37 µM; LogEC50 (GraphPad Prism best-fit, GSK3β) [3]: -5.472
10 | > 1e-05 | did not demonstrate AMPK inhibition | 8.29 | -0.95 | -0.9519 | – | CN1CCN(Cc2ccc(C=C3C(=O)Nc4ccc(C#N)cc43)cc2)CC1 (mixture of isomers) [Compound 12, (E/Z)-5-Cyano-3-(4-((4-methylpiperazin-1-yl)methyl)benzylidene)oxindole] | EC50 [3]: 8.29 µM; LogEC50 (GraphPad Prism best-fit, GSK3β) [3]: -5.082
11 | > 1e-05 | – | > 10 | – | – | – | O=C1Nc2ccc(CCN3CCCCC3)cc2/C1=C/c1ccc(CN2CCOCC2)cc1 [Compound 9, (Z)-5-(2-(Piperidin-1-yl)ethyl)-3-(4-(morpholinomethyl)benzylidene)oxindole] | –
12 | – | demonstrated AMPK inhibition | 4.92 | -0.59 | -0.5892 | -0.38 | N#Cc1ccc2c(c1)/C(=C/c1cc(CN3CCOCC3)c[nH]1)C(=O)N2 [Compound 13, (Z)-5-Cyano-3-((4-(morpholinomethyl)-1H-pyrrol-2-yl)methylene)oxindole] | EC50 ([1]; sigmoidal fit, extrapolated beyond 10 μM, read-out: EC50 (GraphPad Prism best-fit, % activity against AMPK), beyond top dose): 1.87e-05 M; IC50 ([1]; supplement kinase profiling report, read-out: IC50 (M) AMPK(A1/B1/G1)): > 1e-05 M; HillSlope (GraphPad Prism best-fit, AMPK) [2]: -0.3757; LogEC50 (GraphPad Prism best-fit, AMPK), beyond top dose ([2]; sigmoidal fit, extrapolated beyond 10 μM): -4.728; EC50 [3]: 4.92 µM; LogEC50 (GraphPad Prism best-fit, GSK3β) [3]: -5.308
13 | 5.04e-06 | demonstrated AMPK inhibition | > 10 | – | – | -0.86 | N#CCCc1ccc2c(c1)/C(=C/c1cc(CN3CCOCC3)c[nH]1)C(=O)N2 [Compound 14, (Z) 5-(2-cyanoethyl)-3-((4-(morpholinomethyl)-1H-pyrrol-2-yl)methylene)oxindole] | EC50 ([1]; sigmoidal dose-response variable slope, Bottom = 0, read-out: EC50 (GraphPad Prism best-fit, % activity against AMPK)): 5.04e-06 M; HillSlope (GraphPad Prism best-fit, AMPK) [2]: -0.8552; LogEC50 (GraphPad Prism best-fit, AMPK) [2]: -5.298; inhibition of GSK3β kinase activity (in words) ([3]; up to 10 μM, 10 μM [33P]-ATP): did not show detectable GSK3β inhibition

Source: article PMC12679472, “The structural requirements of 3,5-substituted oxindoles that determine selective AMPK or GSK3β inhibition” (RSC Medicinal Chemistry, 2025)
